Tests used:
[1] = tested on: HUVEC; test: Tube formation on Matrigel; format: cell-based, human; conditions: 1, 5, 10, 25 μM, VEGF 10 ng/mL, 20 hours
Description: The effect of capsiate or dihydrocapsiate on tube formation was investigated according to a method published in the literature [Lee O H et al., 1999, Biochem. Biophys. Res. Commun. 264; 743-750].
In brief, 250 μL of growth factor-reduced Matrigel (10 mg protein/mL) was added to a 16 mm tissue culture well and subjected to polymerization at 37° C. for 30 minutes. HUVEC cultured for in M199 medium containing 1% FBS for 6 hours were treated with trypsin, collected, and resuspended in M199 medium containing 1% FBS. Capsiate or dihydrocapsiate at different concentrations (1 μM, 5 μM, 10 μM, 25 μM) were pre-treated at room temperature for 30 minutes. The cells were added to the Matrigel at a concentration of 1.8×10^5 cells/well and VEGF (10 ng/mL) was added. After culturing for 20 hours, photograph was taken (×200) and the area covered by the tube network was measured according to an optical imaging technique [scanned with Adobe Photoshop and measured with Image-Pro Plus (Media Cybermetics).

[2] = tested on: Human umbilical vein endothelial cells (HUVEC); test: VEGF-induced proliferation of endothelial cells, MTT assay; format: cell-based; conditions: for proliferation of HUVEC induced by VEGF (MTT): 1, 5, 10, 25 μM, 10 ng/mL VEGF, 48 hours; for growth of HUVEC without VEGF (cell toxicity): concentration up to 50 μM without VEGF, not shown in figure
Description: MTT assay was carried out investigate the effect of capsiate or dihydrocapsiate on the proliferation of endothelial cells (EC) induced by VEGF.
Human umbilical vein endothelial cells (HUVEC) were placed on a gelatin-coated 24-well plate at a concentration of 2×10^4 cells/well. After culturing for 24 hours, followed by washing twice with M199 medium (Invitrogen, USA), the cells were cultured for 6 hours in M199 medium containing 1% FBS. After addition of capsiate or dihydrocapsiate at different concentrations (1 μM, 5 μM, 10 μM, 25 μM), followed by pre-culturing for 30 minutes, 10 ng/mL VEGF (Upstate, USA) was added and the cells were cultured for 48 hours. Then, 3-(4,5-dimethylthiazol-2-yl)-2,5-diphenyltetrazolium bromide salt (MTT) solution (0.5 mg/mL) was added and the cells were cultured at 37° C. for 3 hours. Remaining MTT was cautiously removed and the formed crystal was dissolved in DMSO for 30 minutes and subjected to absorbance measurement at 560 nm after mixing well for 5 minutes.

[3] = tested on: HUVEC; test: [14C] sucrose permeability assay; format: cell-based, human; conditions: 5, 10, 25 μM, VEGF 50 ng/mL for 1 hour
Description: [^14C] sucrose permeability assay was carried out in order to identify the effect of capsiate or dihydrocapsiate on VEGF-induced endothelial permeability. In brief, HUVEC were placed on a transwell filter (Corning Costar). At confluence, the cells were cultured in M199 medium containing 1% FBS for 3 hours. After treating with capsiate or dihydrocapsiate at different concentrations (5 μM, 10 μM, 25 μM) for 30 minutes, the cells were treated with VEGF (50 ng/mL) for 1 hour. [^14C] sucrose (0.8 μCi/mL, 50 μL) was added to the upper compartment. 30 minutes later, the irradiation level was measured at the lower compartment using a scintillation counter (Wallac, PerkinElmer).

[4] = tested on: HaCaT cells; test: UV-induced intracellular ROS production (DCFH-DA fluorescence microscopy); format: cell-based, human; conditions: 50 μM, UV 100 J/m^2, vs UV only control group
Description: 5×10^5 HaCaT cells (acquired from Professor N. Fusenig of the German Cancer Research Center), which are a human keratinocyte cell line, were placed on a 60 mm Petri dish (1×10^6 cells for a 100 mm Petri dish) and cultured for 24 hours in Dulbecco's modified Eagle's medium (DMEM) containing 10% fetal bovine serum (FBS).
After treating with 50 μM capsiate for 30 minutes, the cells were washed 3 times with phosphate buffered saline (PBS). In order to induce the production of ROS, UV was irradiated at an intensity of 100 J/m^2, using a UV lamp (FSX 24 T12/UVB/HO, Pansol™ USA). Immediately after the UV irradiation, the cells were washed again with PBS and further cultured for 2 hours in DMEM containing 1% FBS, which was treated with capsiate at the same concentration as in the pre-treatment. After treating with 25 μM 2,7-dichlorofliuorescin diacetate (DCFH-DA) in Hank's balanced salt solution (HBSS, BioWhittaker Cambrex, USA) for 30 minutes, the cells were washed 3 times with PBS.
The treated cells were observed under a fluorescence microscope (Carl Zeiss, USA) in order to measure the ROS produced by the UV irradiation. […]
Inhibition effect on the production of intracellular ROS induced by UV was measured in the same manner as Example 1-1, except for using dihydrocapsiate instead of capsiate.

[5] = tested on: CD31; test: Endothelial cell content in Matrigel plug, CD31 immunohistochemical staining; format: in vivo; conditions: C57/BL6 mouse Matrigel plug; 60 μg; 100 ng VEGF
Description: Immunohistochemical staining was carried out using CD31 in order to measure the endothelial cell content in the Matrigel plug.
The Matrigel plug was fixed using 2% formaldehyde and moisture was removed from the Matrigel using 15% sucrose and 30% sucrose based on the principle of osmosis. Then, the Matrigel plug was hardened at −70° C. The hardened Matrigel plug was sliced with a thickness of 8-12 μm, stained with CD31-antibody (PECAM-1 antibody, BD Biosciences, USA) and the level of expression by endothelial cells was observed under a microscope.

[6] = tested on: HUVEC; test: VEGF-induced proliferation of endothelial cells, 3H-thymidine incorporation assay; format: cell-based, human; conditions: 25 μM; 10 ng/mL VEGF
Description: The inhibition effect of capsiate or dihydrocapsiate on the proliferation of EC induced by VEGF was investigated by ^3H-thymidine incorporation assay according to a method published in the literature [Lee O H et al., 1999, Biochem. Biophys. Res. Commun., 264: 743-750].
In brief, HUVEC were placed on a gelatin-coated 24-well plate at a concentration of 2×10^4 cells/well. After culturing for 24 hours, followed by washing twice with M199 medium (Invitrogen, USA), the cells were cultured for 6 hours in M199 medium containing 1% FBS. After addition of 25 μM capsiate or dihydrocapsiate, followed by pre-culturing for 30 minutes, 10 ng/mL VEGF was added and the cells were cultured for 30 hours. Then, 0.5 μCi/mL ^3H-thymidine was added and the cells were cultured for 6 hours.
DNA was precipitated from the cultured cells in 10% trichloroacetic acid at 4° C. for 30 minutes and washed twice with water. The DNA was dissolved in 0.2 N NaOH/0.1% SDS and measured using a liquid scintillation counter.

Structure (SMILES)	VEGF-induced formation of tube-like structures [1]	proliferation of HUVEC induced by VEGF (MTT) [2]	growth of HUVEC without VEGF (cell toxicity) [2]	VEGF-increased permeability of endothelial cells [3]	production of intracellular ROS induced by UV [4]	level of CD31 expression in Matrigel plug [5]	VEGF-increased DNA synthesis in HUVEC (3H-thymidine incorporation) [6]
COc1cc(COC(=O)CCCCCCC(C)C)ccc1O [dihydrocapsiate]	reduced	inhibited by capsiate or dihydrocapsiate in a concentration-dependent manner	grew normally	decreased in a concentration-dependent manner	decreased remarkably	decreased to the extent comparable to the control group	inhibited the DNA synthesis
COc1cc(COC(=O)CCCC/C=C/C(C)C)ccc1O [capsiate]	reduced	inhibited by capsiate or dihydrocapsiate in a concentration-dependent manner	grew normally	decreased in a concentration-dependent manner	decreased remarkably	decreased to the extent comparable to the control group	inhibited the DNA synthesis

Reference: US9572786B2, “Use of capsiate or dihydrocapsidate” (Catholic University Industry Academy Cooperation Foundation, priority 2007, dated 2017)
